# Experimental data reported in ChEMBL document CHEMBL1201862, “PubChem BioAssay data set” (2004).
#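 Cultured in 96-well plates, cells were exposed to test compound for 48 hours across five concentrations. At the GI50, growth is halved.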 Active and inactive are the calls of the source. Cut-off read from the data, not from the text of the source: active = GI50 up to about 1.1 µM and inactive = higher.
# Legend:
# Test in all cases: inhibition of tumour cell growth, NCI panel, 48 h
# UO-31 = tested on: UO-31
# SF-295 = tested on: SF-295
# NCI-H460 = tested on: NCI-H460
# UACC-62 = tested on: UACC-62
# DMS-273 = tested on: DMS-273
# CCRF-CEM = tested on: CCRF-CEM
# EKVX = tested on: EKVX
# HT-29 = tested on: HT-29
# HCT-15 = tested on: HCT-15
# 786-0 = tested on: 786-0
# HOP-18 = tested on: HOP-18
# NCI-H522 = tested on: NCI-H522
# U-251 = tested on: U-251
# HOP-92 = tested on: HOP-92
# KM-20L2 = tested on: KM-20L2
# SN12C = tested on: SN12C
# MOLT-4 = tested on: MOLT-4
# NCI-H23 = tested on: NCI-H23
# COLO 205 = tested on: COLO 205
# RXF 631 = tested on: RXF 631
# LOX IMVI = tested on: LOX IMVI
# IGROV-1 = tested on: IGROV-1
# RPMI-8226 = tested on: RPMI-8226
# SK-OV-3 = tested on: SK-OV-3
# K562 = tested on: K562
# TK-10 = tested on: TK-10
# HCT-116 = tested on: HCT-116
# A549 = tested on: A549
# SF-539 = tested on: SF-539
# SW-620 = tested on: SW-620
# CAKI-1 = tested on: CAKI-1
# OVCAR-8 = tested on: OVCAR-8
# M19-MEL = tested on: M19-MEL
# SK-MEL-28 = tested on: SK-MEL-28
# SK-MEL-5 = tested on: SK-MEL-5
# SF-268 = tested on: SF-268
# DMS-114 = tested on: DMS-114
# LXFL 529 = tested on: LXFL 529
# SNB-19 = tested on: SNB-19
# M14 = tested on: M14
# ACHN = tested on: ACHN
# DLD-1 = tested on: DLD-1
# RXF 393 = tested on: RXF 393
# OVCAR-3 = tested on: OVCAR-3
# HL-60 = tested on: HL-60
# SNB-78 = tested on: SNB-78
# OVCAR-4 = tested on: OVCAR-4
# HCC 2998 = tested on: HCC 2998
# SK-MEL-2 = tested on: SK-MEL-2
# A498 = tested on: A498
# UACC-257 = tested on: UACC-257
# Malme-3M = tested on: Malme-3M
# KM12 = tested on: KM12
# OVCAR-5 = tested on: OVCAR-5
# SNB-75 = tested on: SNB-75
# HOP-62 = tested on: HOP-62
# NCI-H226 = tested on: NCI-H226
# SR = tested on: SR
smiles,measurement,setting,value
COc1ccc(/C=C/C(=O)c2c(-c3ccccc3)nn(C)c(=O)c2N2CCCCC2)cc1,GI50,UO-31,13.9 µM (inactive)
same,GI50,SF-295,21.6 µM (inactive)
same,GI50,NCI-H460,17.8 µM (inactive)
same,GI50,UACC-62,15.7 µM (inactive)
same,GI50,DMS-273,15.9 µM (inactive)
same,GI50,CCRF-CEM,9.95 µM (inactive)
same,GI50,EKVX,11.7 µM (inactive)
same,GI50,HT-29,14.9 µM (inactive)
same,GI50,HCT-15,20.7 µM
same,GI50,786-0,14.2 µM (inactive)
same,GI50,HOP-18,20.1 µM (inactive)
same,GI50,NCI-H522,10.7 µM (inactive)
same,GI50,U-251,14.5 µM (inactive)
same,GI50,HOP-92,3.81 µM (inactive)
same,GI50,KM-20L2,14.3 µM (inactive)
same,GI50,SN12C,20.8 µM (inactive)
same,GI50,MOLT-4,3.94 µM (inactive)
same,GI50,NCI-H23,14 µM (inactive)
same,GI50,COLO 205,16.7 µM (inactive)
same,GI50,RXF 631,23.5 µM (inactive)
same,GI50,LOX IMVI,14.7 µM (inactive)
same,GI50,IGROV-1,25 µM (inactive)
same,GI50,RPMI-8226,5.26 µM (inactive)
same,GI50,SK-OV-3,21.4 µM (inactive)
same,GI50,K562,11.8 µM (inactive)
same,GI50,TK-10,37.1 µM (inactive)
same,GI50,HCT-116,7.31 µM (inactive)
same,GI50,A549,16.8 µM (inactive)
same,GI50,SF-539,17.5 µM (inactive)
same,GI50,SW-620,24.5 µM (inactive)
same,GI50,CAKI-1,31.2 µM (inactive)
same,GI50,OVCAR-8,19.5 µM (inactive)
same,GI50,M19-MEL,25.3 µM (inactive)
same,GI50,SK-MEL-28,14.9 µM (inactive)
same,GI50,SK-MEL-5,12.8 µM (inactive)
same,GI50,SF-268,19.7 µM (inactive)
same,GI50,DMS-114,14.6 µM (inactive)
same,GI50,LXFL 529,16.6 µM (inactive)
same,GI50,SNB-19,18.4 µM (inactive)
same,GI50,M14,20.7 µM (inactive)
same,GI50,ACHN,40.1 µM (inactive)
same,GI50,DLD-1,16.1 µM (inactive)
same,GI50,RXF 393,12 µM (inactive)
CC1=C(C(=O)Nc2cccc(Cl)c2)C(c2ccc([N+](=O)[O-])cc2)C(C(=O)Nc2cccc(Cl)c2)=C(C)N1,GI50,UO-31,17.7 µM (inactive)
same,GI50,SF-295,23.6 µM (inactive)
same,GI50,NCI-H460,20.1 µM (inactive)
same,GI50,UACC-62,14 µM (inactive)
same,GI50,OVCAR-3,25.6 µM (inactive)
same,GI50,CCRF-CEM,10.9 µM (inactive)
same,GI50,HL-60,17.9 µM (inactive)
same,GI50,SNB-78,36.1 µM (inactive)
same,GI50,OVCAR-4,20.7 µM (inactive)
same,GI50,EKVX,33.3 µM (inactive)
same,GI50,HT-29,16.6 µM (inactive)
same,GI50,HCT-15,23.7 µM
same,GI50,HCC 2998,17.9 µM (inactive)
same,GI50,786-0,22 µM (inactive)
same,GI50,HOP-18,16.5 µM (inactive)
same,GI50,NCI-H522,26.3 µM (inactive)
same,GI50,U-251,15.8 µM (inactive)
same,GI50,SK-MEL-2,18.3 µM (inactive)
same,GI50,HOP-92,11.5 µM (inactive)
same,GI50,A498,33.1 µM (inactive)
same,GI50,UACC-257,16.7 µM (inactive)
same,GI50,KM-20L2,20.2 µM (inactive)
same,GI50,SN12C,22.3 µM (inactive)
same,GI50,Malme-3M,21 µM (inactive)
same,GI50,KM12,21.4 µM (inactive)
same,GI50,MOLT-4,10.3 µM (inactive)
same,GI50,NCI-H23,21.3 µM (inactive)
same,GI50,COLO 205,34.5 µM (inactive)
same,GI50,RXF 631,19.8 µM (inactive)
same,GI50,LOX IMVI,14.9 µM (inactive)
same,GI50,IGROV-1,26.5 µM (inactive)
same,GI50,RPMI-8226,15.5 µM (inactive)
same,GI50,OVCAR-5,48 µM (inactive)
same,GI50,SK-OV-3,11.9 µM (inactive)
same,GI50,K562,24.8 µM (inactive)
same,GI50,TK-10,67.3 µM (inactive)
same,GI50,HCT-116,13.1 µM (inactive)
same,GI50,A549,28.9 µM (inactive)
same,GI50,SF-539,39.8 µM (inactive)
same,GI50,SW-620,> 10 µM (inactive)
same,GI50,OVCAR-8,30.7 µM (inactive)
same,GI50,SNB-75,10.7 µM (inactive)
same,GI50,SK-MEL-28,25.3 µM (inactive)
same,GI50,SK-MEL-5,17.5 µM (inactive)
same,GI50,SF-268,27 µM (inactive)
same,GI50,DMS-114,21.2 µM (inactive)
same,GI50,LXFL 529,23.5 µM (inactive)
same,GI50,SNB-19,37.2 µM (inactive)
same,GI50,M14,16.6 µM (inactive)
same,GI50,HOP-62,29 µM (inactive)
same,GI50,ACHN,25.1 µM (inactive)
same,GI50,NCI-H226,26.9 µM (inactive)
same,GI50,DLD-1,21.8 µM (inactive)
same,GI50,RXF 393,19.5 µM (inactive)
CC(C)(C)OC1=C(OC(C)(C)C)C(O)(c2ccc(Cl)cc2)C1=O (stereo unspecified),GI50,UO-31,> 100 µM (inactive)
same,GI50,SF-295,> 100 µM (inactive)
same,GI50,NCI-H460,> 100 µM (inactive)
same,GI50,UACC-62,> 100 µM (inactive)
same,GI50,DMS-273,> 100 µM (inactive)
same,GI50,OVCAR-3,> 100 µM (inactive)
same,GI50,CCRF-CEM,> 100 µM (inactive)
same,GI50,HL-60,> 100 µM (inactive)
same,GI50,SNB-78,> 100 µM (inactive)
same,GI50,OVCAR-4,> 100 µM (inactive)
same,GI50,EKVX,> 100 µM (inactive)
same,GI50,HT-29,> 100 µM (inactive)
same,GI50,HCT-15,> 100 µM
same,GI50,HCC 2998,> 100 µM (inactive)
same,GI50,786-0,> 100 µM (inactive)
same,GI50,HOP-18,> 100 µM (inactive)
same,GI50,U-251,> 100 µM (inactive)
same,GI50,A498,> 100 µM (inactive)
same,GI50,SR,> 100 µM (inactive)
same,GI50,SN12C,> 100 µM (inactive)
same,GI50,Malme-3M,> 100 µM (inactive)
same,GI50,KM12,> 100 µM (inactive)
same,GI50,MOLT-4,> 100 µM (inactive)
same,GI50,NCI-H23,> 100 µM (inactive)
same,GI50,COLO 205,> 100 µM (inactive)
same,GI50,RXF 631,86.5 µM (inactive)
same,GI50,LOX IMVI,> 100 µM (inactive)
same,GI50,IGROV-1,> 100 µM (inactive)
same,GI50,RPMI-8226,> 100 µM (inactive)
same,GI50,OVCAR-5,> 100 µM (inactive)
same,GI50,SK-OV-3,> 100 µM (inactive)
same,GI50,K562,> 100 µM (inactive)
same,GI50,TK-10,> 100 µM (inactive)
same,GI50,A549,> 100 µM (inactive)
same,GI50,SF-539,> 100 µM (inactive)
same,GI50,SW-620,> 100 µM (inactive)
same,GI50,OVCAR-8,> 100 µM (inactive)
same,GI50,M19-MEL,> 100 µM (inactive)
same,GI50,SNB-75,99.3 µM (inactive)
same,GI50,SK-MEL-28,> 100 µM (inactive)
same,GI50,SK-MEL-5,> 100 µM (inactive)
same,GI50,SF-268,> 100 µM (inactive)
same,GI50,DMS-114,> 100 µM (inactive)
same,GI50,LXFL 529,> 100 µM (inactive)
same,GI50,SNB-19,> 100 µM (inactive)
same,GI50,M14,> 100 µM (inactive)
same,GI50,ACHN,> 100 µM (inactive)
same,GI50,DLD-1,> 100 µM (inactive)
same,GI50,RXF 393,> 100 µM (inactive)
